In patent US20040058914A1, “Combination drugs” (priority 2000, published 2004):

Assays:
[1] = tested on: cyclophosphamide-induced pollakiuria rats; experiment: bladder capacity of cyclophosphamide-induced pollakiuria rats under urethane anesthesia (Experimental Example 1, NK-1 + NK-2 antagonist); format: in vivo; details: for bladder capacity Before administration: cyclophosphamide 200 mg/kg i.p. the day before, baseline before i.v. drug; for bladder capacity Before administration / bladder capacity (%) increase / bladder capacity After administration: Compound No. 3 0.3 mg/kg, SR48968 10 mg/kg, mean ± standard error of 5-7 animals; for bladder capacity (%) increase / bladder capacity After administration: cyclophosphamide 200 mg/kg i.p., 10 min. after i.v. administration; for effect on bladder capacity (in words): cyclophosphamide-treated animals, i.v., sole vs combined administration at the doses of Table 1
Procedure: The effect afforded by the combined use of compound No. 3 and (±)SR48968 hydrochloride on the suppressive action on pollakiuria and urinary incontinence was shown by the ability to increase bladder capacity of cyclophosphamide-induced pollakiuria rats under a urethane anesthesia. Cyclophosphamide (200 mg/kg) or a solvent was intraperitoneally administered and the rats were subjected to the bladder capacity test the next day. […] The changes in the bladder capacity at 10 min. after administration were measured.
The data are expressed in mean±standard error.

[2] = tested on: cyclophosphamide-induced pollakiuria rats; experiment: bladder capacity of cyclophosphamide-induced pollakiuria rats under urethane anesthesia (Experimental Example 2, NK-1 antagonist + anti-cholinergic drug); details: for bladder capacity Before administration: cyclophosphamide 200 mg/kg i.p. the day before, baseline before i.v. drug; for bladder capacity Before administration / bladder capacity (%) increase / bladder capacity After administration: Compound No. 3 0.3 mg/kg, oxybutynin chloride 1 mg/kg, mean ± standard error of 5-7 animals; for bladder capacity (%) increase / bladder capacity After administration: cyclophosphamide 200 mg/kg i.p., 10 min. after i.v. administration; for effect on bladder capacity (in words): cyclophosphamide-treated animals, i.v., sole vs combined administration at the doses of Table 2

SMILES | bladder capacity Before administration [1] | bladder capacity (%) increase [1] | bladder capacity After administration [1] | effect on bladder capacity (in words) [1] | bladder capacity Before administration [2] | bladder capacity (%) increase [2] | bladder capacity After administration [2] | effect on bladder capacity (in words) [2]
CC(=O)NC1(c2ccccc2)CCN(CC[C@H](CN(C)C(=O)c2ccccc2)c2ccc(Cl)c(Cl)c2)CC1 (racemic) [SR48968] | 0.99 ± 0.08 mL | 3.8 ± 3.3% | 1.03 ± 0.09 mL | does not increase the bladder capacity | – | – | – | –
Cc1ccc(-c2c3n(c(=O)c4ncccc24)CC[C@@H](C)CN(Cc2cc(C(F)(F)F)cc(C(F)(F)F)c2)C3=O)cc1 [Compound No. 3, (9R)-7-[3,5-bis(trifluoromethyl)benzyl]-6,7,8,9,10,11-hexahydro-9-methyl-5-(4-methylphenyl)-6,13-dioxo-13H-[1,4]diazocino[2,1-g][1,7]naphthyridine] | 1.06 ± 0.14 mL | −0.28 ± 5.3% | 1.05 ± 0.14 mL | does not increase the bladder capacity | 0.66 ± 0.08 mL | 28.6 ± 12.4% | 0.80 ± 0.09 mL | does not increase the bladder capacity
CCN(CC)CC#CCOC(=O)C(O)(c1ccccc1)C1CCCCC1 (stereo not shown) [oxybutynin chloride] | – | – | – | – | 0.76 ± 0.13 mL | 6.9 ± 12.4% | 0.78 ± 0.12 mL | does not increase the bladder capacity
